US20090221010A1, “Methods for Prediction and Prognosis of Cancer, and Monitoring Cancer Therapy” (priority 2005, published 2009)

Test system: non-small cell lung cancer
Test: Tumor shrinkage measured radiologically in non-small cell lung cancer patients treated with Sorafenib
Assay type: in vivo, human
Conditions: non-small cell lung carcinoma; for mean % change in tumor size: measured radiologically

Compound: CNC(=O)c1cc(Oc2ccc(NC(=O)Nc3ccc(Cl)c(C(F)(F)F)c3)cc2)ccn1 [Sorafenib]
- average tumor shrinkage (patients who showed stable disease, Sorafenib treatment): 5.1%
- average tumor growth (patients whose disease progressed, Sorafenib treatment): 20.6%
- mean % change in tumor size (patients with Progressive Disease in spite of Sorafenib treatment): 20.6%
- mean % change in tumor size (patients with Stable Disease on Sorafenib treatment): −5.1%
